Some test systems named below: RPMI-8226 leukemia; M14 melanoma; SNB-19 CNS; NCI/ADR-RES ovarian; MDA-MB-435; HOP-62 NSCLC; HS 578T breast; NCI-H522 lung; COLO 205 colon; CCRF-CEM leukemia.
Experiment in all cases: DTP human tumour cell line panel, 48 h

This note sets out measurements from PubChem BioAssay (NCI).

A word on the GI50: it is the concentration giving 50% growth inhibition. In general, TGI refers to the concentration at which net growth stops. Low readings indicate greater sensitivity of the cells, high ones lower sensitivity of the cells.

Values joined by “and” are separate entries in the source; they are usually repeats but may differ in a detail not shown here. Equal entries are not always repeated.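 Cells were grown in 96-well plates and exposed to each compound for 48 hours at five concentrations; endpoints were interpolated linearly between bracketing concentrations, or set to the highest concentration if not reached. GI50 marks 50% less growth. At the TGI there is no net growth.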 Bounds are passed on as bounds.

Regarding `OCc1ccc(N2CCCC2)cc1Cl`, the GI50 with RPMI-8226 leukemia is 6.22 µM; in the assay with M14 melanoma, greater than 100 µM; in the assay on SNB-19 CNS, greater than 100 µM; in the assay with NCI/ADR-RES ovarian, 34.9 µM; with MDA-MB-435, greater than 100 µM; in the assay on HOP-62 NSCLC, 10.2 µM. Also, the GI50 with HS 578T breast is greater than 50 µM; with NCI-H522 lung, 14.5 µM; in the assay with COLO 205 colon, 2.01 µM; in the assay with CCRF-CEM leukemia, 31.3 µM. The TGI with RPMI-8226 leukemia is greater than 84.5 µM; with M14 melanoma it was greater than 100 µM; in the assay on SNB-19 CNS it was greater than 100 µM; in the assay on NCI/ADR-RES ovarian, greater than 100 µM; with MDA-MB-435 it was greater than 100 µM; in the assay on HOP-62 NSCLC it was greater than 100 µM. Also, the total growth inhibition concentration (TGI) was greater than 100 µM in the assay with HS 578T breast, 32.5 µM in the assay on NCI-H522 lung, 5.11 µM in the assay on COLO 205 colon and greater than 100 µM in the assay with CCRF-CEM leukemia.

Regarding `COc1ccc2c(c1)/C(=C\c1c[nH]c3ccc(OC)cc13)C(=O)N2`, the GI50 in the assay on RPMI-8226 leukemia was 2.39 µM; in the assay with M14 melanoma, 1.91 µM; in the assay with SNB-19 CNS, 6.66 µM; in the assay with NCI/ADR-RES ovarian it was 2.65 µM; with MDA-MB-435, 0.877 µM; in the assay on HOP-62 NSCLC, 2.72 µM. Besides, the GI50 is 2.33 µM in the assay on HS 578T breast, 2.27 µM in the assay with NCI-H522 lung, 2.89 µM in the assay with COLO 205 colon and 2.84 µM in the assay with CCRF-CEM leukemia. Also, the TGI in the assay on RPMI-8226 leukemia was determined as 8.89 µM; in the assay on M14 melanoma, 6.14 µM; with SNB-19 CNS, 20.1 µM; in the assay on NCI/ADR-RES ovarian it was 8.25 µM; with MDA-MB-435, 5.17 µM; in the assay on HOP-62 NSCLC, 12.5 µM. Further, the TGI in the assay on HS 578T breast is 7.66 µM; with NCI-H522 lung, 7.76 µM; in the assay with COLO 205 colon, 9.84 µM; with CCRF-CEM leukemia, 9.33 µM.

Take `COc1cccc(CC(C)=C(c2ccc(OCCCN(C)C)cc2)c2ccc(OCCCN(C)C)cc2)c1`: the GI50 is 0.55 µM in the assay with RPMI-8226 leukemia; 0.461 µM with M14 melanoma; 0.905 µM in the assay on SNB-19 CNS; 0.548 µM in the assay with NCI/ADR-RES ovarian; 0.444 µM in the assay on MDA-MB-435; 0.501 µM with HOP-62 NSCLC. Also, the GI50 is 0.527 µM in the assay on HS 578T breast, 0.452 µM in the assay on NCI-H522 lung, 0.432 µM with COLO 205 colon and 0.463 µM in the assay on CCRF-CEM leukemia. For the same molecule, the total growth inhibition concentration (TGI) amounted to 1.29 µM with RPMI-8226 leukemia; 0.864 µM in the assay with M14 melanoma; 3.34 µM with SNB-19 CNS; 1.28 µM in the assay with NCI/ADR-RES ovarian; 0.819 µM in the assay on MDA-MB-435; 1.1 µM in the assay with HOP-62 NSCLC. Besides, the TGI worked out at 1.34 µM in the assay with HS 578T breast, 1 µM with NCI-H522 lung, 0.868 µM in the assay on COLO 205 colon and 1.13 µM in the assay on CCRF-CEM leukemia.

Regarding `Nc1n[nH]c2ccc([C@@H]3Nc4cc5[nH]ncc5cc4[C@H]4C5CCC(C5)[C@@H]34)cc12` (stereo partly drawn), the 50% growth inhibitory concentration (GI50) in the assay on RPMI-8226 leukemia is 0.354 µM; in the assay with M14 melanoma, 0.294 µM; in the assay with SNB-19 CNS it was 0.436 µM; with NCI/ADR-RES ovarian it was 0.807 µM; with MDA-MB-435 it was 0.3 µM; with HOP-62 NSCLC, 0.689 µM. Also, the GI50 in the assay with HS 578T breast was 0.369 µM; in the assay with NCI-H522 lung it was 0.396 µM; with COLO 205 colon, 0.424 µM; with CCRF-CEM leukemia it was 0.344 µM. Also, the TGI is 12.6 µM in the assay on RPMI-8226 leukemia; greater than 100 µM in the assay with M14 melanoma; greater than 100 µM with SNB-19 CNS; greater than 100 µM in the assay on NCI/ADR-RES ovarian; 6.85 µM in the assay on MDA-MB-435; 98 µM with HOP-62 NSCLC. The TGI with HS 578T breast was greater than 100 µM; in the assay on NCI-H522 lung, greater than 45.6 µM; in the assay on COLO 205 colon it was greater than 40.6 µM; with CCRF-CEM leukemia, greater than 40.4 µM.

As to `COc1cccc(C2C(C#N)=C(N)Oc3c2ccc2ccccc32)c1` (stereo not drawn), the GI50 with RPMI-8226 leukemia was less than 0.019 µM; in the assay with M14 melanoma, less than 0.012 µM; in the assay with SNB-19 CNS it was 0.0322 µM; with NCI/ADR-RES ovarian, less than 0.01 µM; in the assay on MDA-MB-435 it was less than 0.01 µM; with HOP-62 NSCLC it was 0.0203 µM. Also, the GI50 in the assay on HS 578T breast is less than 0.0133 µM; in the assay with NCI-H522 lung, less than 0.01 µM; in the assay on COLO 205 colon, 0.132 µM; with CCRF-CEM leukemia it was 0.0353 µM. The TGI in the assay on RPMI-8226 leukemia was determined as 3.22 µM; with M14 melanoma it was 13.3 µM; with SNB-19 CNS, 20.5 µM; in the assay with NCI/ADR-RES ovarian it was 0.391 µM; with HOP-62 NSCLC it was 16.2 µM; in the assay with HS 578T breast it was 15.1 µM. Also, the concentration for total growth inhibition (TGI) came to 0.639 µM in the assay on COLO 205 colon and 18.2 µM in the assay on CCRF-CEM leukemia.

`O=C(NN1C(=O)CSC1c1ccc(F)cc1)C(O)c1ccccc1` (stereo not drawn): the GI50 is 44.4 µM in the assay on RPMI-8226 leukemia; greater than 100 µM with M14 melanoma; greater than 100 µM in the assay with SNB-19 CNS; greater than 100 µM in the assay with NCI/ADR-RES ovarian; greater than 100 µM with MDA-MB-435; greater than 100 µM in the assay on HOP-62 NSCLC. For the same molecule, the GI50 with HS 578T breast was greater than 100 µM; in the assay with NCI-H522 lung it was 93.6 µM; in the assay on COLO 205 colon, greater than 100 µM; with CCRF-CEM leukemia, greater than 100 µM. In addition, the total growth inhibition concentration (TGI) in the assay on RPMI-8226 leukemia, with M14 melanoma, with SNB-19 CNS, with NCI/ADR-RES ovarian, in the assay on MDA-MB-435 and in the assay on HOP-62 NSCLC was greater than 100 µM in each case. The TGI in the assay with HS 578T breast, in the assay on NCI-H522 lung, with COLO 205 colon and with CCRF-CEM leukemia was greater than 100 µM in each case.

For the molecule `NCCC(=O)NC(Cc1cnc[nH]1)C(=O)O` (stereo not drawn), the TGI in the assay on RPMI-8226 leukemia, in the assay on M14 melanoma, in the assay on SNB-19 CNS, in the assay on NCI/ADR-RES ovarian, in the assay with MDA-MB-435 and in the assay with HOP-62 NSCLC was greater than 100 µM throughout. For the same molecule, the TGI in the assay on HS 578T breast, in the assay on NCI-H522 lung, in the assay on COLO 205 colon and with CCRF-CEM leukemia was greater than 100 µM each time.

`CCN(CC)C(=S)SSC(=S)N(CC)CC`: the GI50 in the assay on RPMI-8226 leukemia was 13.6 µM and 15 µM; in the assay on M14 melanoma, 12.1 µM and 12.6 µM; in the assay with SNB-19 CNS, 37.4 µM and 76.4 µM; with NCI/ADR-RES ovarian it was 18.1 µM and 17.6 µM; in the assay on MDA-MB-435, 15.6 µM and 18.7 µM; in the assay with HOP-62 NSCLC it was 33.9 µM and 33.7 µM. The GI50 with HS 578T breast is 20.9 µM and 105 µM; with NCI-H522 lung it was 11.6 µM and 18.3 µM; in the assay on COLO 205 colon, 17 µM and 15.4 µM; in the assay with CCRF-CEM leukemia, 10.3 µM. Also, the TGI is 30.5 µM and 46.6 µM in the assay with RPMI-8226 leukemia; 28.9 µM and 28.1 µM in the assay on M14 melanoma; > 75.6 µM and 219 µM in the assay on SNB-19 CNS; 39.9 µM and 37.9 µM in the assay with NCI/ADR-RES ovarian; 43.5 µM and 53.3 µM in the assay on MDA-MB-435; > 67.9 µM and 112 µM in the assay on HOP-62 NSCLC. Further, the TGI in the assay on HS 578T breast was 64 µM and 501 µM; in the assay on NCI-H522 lung, 27.9 µM and 38.4 µM; with COLO 205 colon, 31.8 µM and 30.1 µM; in the assay on CCRF-CEM leukemia, 27.6 µM.
